Results on 2 compounds are retold here after ChEMBL document CHEMBL1138425, “Beta-secretase (BACE-1) inhibitors: accounting for 10s loop flexibility using rigid active sites” (Bioorg Med Chem Lett, 2007).

The target of this assay is Beta-secretase 1 (Homo sapiens, UniProt P56817). Nature of the assay: Inhibition of BACE1.
Chain of Beta-secretase 1 (P56817 whole entry): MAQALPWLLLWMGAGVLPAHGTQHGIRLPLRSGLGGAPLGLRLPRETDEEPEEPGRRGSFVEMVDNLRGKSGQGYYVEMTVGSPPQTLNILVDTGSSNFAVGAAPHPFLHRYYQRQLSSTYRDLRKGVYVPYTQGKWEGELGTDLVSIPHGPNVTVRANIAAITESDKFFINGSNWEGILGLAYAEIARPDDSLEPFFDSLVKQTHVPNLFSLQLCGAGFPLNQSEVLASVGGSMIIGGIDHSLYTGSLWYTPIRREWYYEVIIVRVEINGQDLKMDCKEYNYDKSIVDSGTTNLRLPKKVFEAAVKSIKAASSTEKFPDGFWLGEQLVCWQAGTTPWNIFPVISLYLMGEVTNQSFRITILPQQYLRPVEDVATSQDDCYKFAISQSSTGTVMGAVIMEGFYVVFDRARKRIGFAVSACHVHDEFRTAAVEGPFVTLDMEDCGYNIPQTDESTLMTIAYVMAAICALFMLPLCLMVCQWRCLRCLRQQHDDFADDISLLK

In the case of `CC(C)C(=O)c1cc(-c2nnc([C@](C)(N)Cc3ccccc3)o2)cc(N(C)S(C)(=O)=O)c1`, the inhibitory constant (Ki) (in general, a measure of affinity in units of concentration, obtained from inhibition or displacement) (read-out: Ki) came out at 16.5 µM and the Ki (read-out: Log Ki (converted)) is 15.8 µM.
Regarding `CCCN(c1cc(/C=C\C2CC2C)cc(-c2nnc([C@](C)(N)Cc3ccccc3)o2)c1)S(C)(=O)=O` (some centres undefined), the Ki reads like this: (read-out: Ki) 0.0519 µM; (read-out: Log Ki (converted)) 0.0501 µM.
